Activity calls are given as the source filed them. No stated cut-off is given here; in the data, actives have a measured IC50 and inactives only a lower limit.

The assay deals with Envelope glycoprotein gp160 (Human immunodeficiency virus 1, UniProt Q6QLK5). The assay is described as follows: cell-free HIV fusion peptide-binding blockers – biochemical, uHTS, fluorescence dequenching, […] (AID 1986).
Envelope glycoprotein gp160, sequence (Q6QLK5 whole entry, the tested form may be a part): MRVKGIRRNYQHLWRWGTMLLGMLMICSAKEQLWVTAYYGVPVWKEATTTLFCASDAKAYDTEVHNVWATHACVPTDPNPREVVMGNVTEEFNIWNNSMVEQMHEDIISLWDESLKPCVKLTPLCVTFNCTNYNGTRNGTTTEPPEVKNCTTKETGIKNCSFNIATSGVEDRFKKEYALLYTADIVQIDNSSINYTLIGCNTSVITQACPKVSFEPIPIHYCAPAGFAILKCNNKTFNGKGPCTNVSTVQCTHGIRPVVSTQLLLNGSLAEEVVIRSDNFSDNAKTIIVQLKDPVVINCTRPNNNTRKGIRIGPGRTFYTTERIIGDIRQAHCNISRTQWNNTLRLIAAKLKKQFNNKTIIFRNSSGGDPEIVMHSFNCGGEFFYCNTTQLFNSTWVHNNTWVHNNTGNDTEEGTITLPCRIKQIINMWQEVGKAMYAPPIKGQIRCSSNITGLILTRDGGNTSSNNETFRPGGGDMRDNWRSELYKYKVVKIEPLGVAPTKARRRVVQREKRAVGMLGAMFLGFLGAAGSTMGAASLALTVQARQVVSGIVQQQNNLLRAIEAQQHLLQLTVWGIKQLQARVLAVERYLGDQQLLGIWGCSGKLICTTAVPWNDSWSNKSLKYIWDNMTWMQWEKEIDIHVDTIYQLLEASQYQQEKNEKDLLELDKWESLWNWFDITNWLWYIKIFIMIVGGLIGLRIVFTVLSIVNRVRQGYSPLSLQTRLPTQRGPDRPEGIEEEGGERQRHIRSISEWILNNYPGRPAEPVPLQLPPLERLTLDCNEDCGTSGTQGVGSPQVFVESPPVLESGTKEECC

Turning to `COc1ccc(C(=O)/C=C/c2cccc(OCc3ccccc3)c2)cc1CSCC(=O)O`, the half-maximal inhibitory concentration (IC50) (in general, the concentration that inhibits the measured activity by half) was 29.2 µM (active).

For the origin of these results see ChEMBL document CHEMBL1201862, “PubChem BioAssay data set” (2004).
